Experiments:
[1] = test system: activity of analgesic drugs; experiment: Hot-plate test, potentiation of analgesic drugs (Experiment 2); format: in vivo, rats
Method: Experiment No. 2: Hot-plate test
The method is that described by Eddy et al. (J. Pharmac. Exp. Ther. 107, 385 (1953)).
Groups of five male rats having a weight of about 150 g, and which have not fasted, are used.
The animals are placed on a metal plate on the bottom of a transparent cylinder, which is heated to 55°±1° C. by an azeotropic boiling mixture (acetone-ethyl formate 1:1).
The reaction time is defined as the interval which passes between the moment at which the animal is placed on the hot-plate and the moment at which it either licks its feet or tries to jump out of the cylinder. The control reaction time is measured 10 and 5 minutes before administration of the drugs and 10, 20, 30, 45, 60 and 90 minutes afterwards. The animals are left on the plate for a maximum period of 30 seconds.
The response to the administration of the product is considered positive if at least a doubling of the normal reaction time is seen. The results obtained are given in Tables 2a and 2b which record the groups treated, the doses administered and the stay times on the plate expressed as the number of positive responses over the number treated.

[2] = test system: endogenous opiates analgesia; experiment: Analgesic activity of endogenous opiates released by transcutaneous shock, Tail Flick Test (Experiment 3); format: in vivo, rats
Method: Experiment No. 3: Influence of several of the compounds of the invention on the analgesic activities of endogenous opiates released by transcutaneous shock in rats and measured by the Tail Flick Test
The method is that described by Lewis et al. J. Neurosc. 1, 358 […]. Male rats which have not fasted and have a weight of about 200 g are used.
The animals are stressed by the application of a 60 Hz-2.5 mA current to the front leg in pulses of a duration of 1 second every 5 seconds for 20 minutes.
This stress regime induces the release of endogenous opiates.

[3] = test system: CCK-8 induced contraction of guinea pig gall bladder; experiment: Anti-CCK activity on gall bladder strips in vitro; conditions: CCK-8 10 ng/ml
Method in brief: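 Longitudinal guinea pig gall bladder strips in Krebs at 32 °C, gassed with O2/CO2 95:5, were contracted with 10 ng/ml CCK-8. Isometric force was recorded across several compound concentrations, and ED50 was taken as the μg/ml concentration antagonising 50% of the CCK contraction.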

[4] = compound 1 mg/kg iv + stress, 5'
[5] = compound 1 mg/kg iv + stress, 10'
[6] = compound 1 mg/kg iv + stress, 15'
[7] = compound 3 mg/kg iv + stress, 5'
[8] = compound 3 mg/kg iv + stress, 10'
[9] = compound 3 mg/kg iv + stress, 15'

CCCCN(CCCC)C(=O)CCC(NC(=O)c1ccc(Cl)c(Cl)c1)C(=O)O [Compound D-2]
TOTAL positives ([1]; oxyphenylbutazone 50 + compound 3 mg/kg i.p.): 12 x/30 | positive responses over number treated ([1]; oxyphenylbutazone 50 + compound 3 mg/kg i.p., 10'): 2/5 | positive responses over number treated ([1]; oxyphenylbutazone 50 + compound 3 mg/kg i.p., 20'): 1/5 | positive responses over number treated ([1]; oxyphenylbutazone 50 + compound 3 mg/kg i.p., 30'): 2/5 | positive responses over number treated ([1]; oxyphenylbutazone 50 + compound 3 mg/kg i.p., 45'): 3/5 | positive responses over number treated ([1]; oxyphenylbutazone 50 + compound 3 mg/kg i.p., 60'): 3/5 | positive responses over number treated ([1]; oxyphenylbutazone 50 + compound 3 mg/kg i.p., 90'): 1/5 | TOTAL positives ([1]; oxyphenylbutazone 50 + compound 10 mg/kg i.p.): 12 x/30 | positive responses over number treated ([1]; oxyphenylbutazone 50 + compound 10 mg/kg i.p., 10'): 1/5 | positive responses over number treated ([1]; oxyphenylbutazone 50 + compound 10 mg/kg i.p., 20'): 1/5 | positive responses over number treated ([1]; oxyphenylbutazone 50 + compound 10 mg/kg i.p., 30'): 3/5 | positive responses over number treated ([1]; oxyphenylbutazone 50 + compound 10 mg/kg i.p., 45'): 3/5 | positive responses over number treated ([1]; oxyphenylbutazone 50 + compound 10 mg/kg i.p., 60'): 2/5 | positive responses over number treated ([1]; oxyphenylbutazone 50 + compound 10 mg/kg i.p., 90'): 2/5 | TOTAL positives ([1]; oxyphenylbutazone 50 + compound 30 mg/kg i.p.): 23 x/30 | positive responses over number treated ([1]; oxyphenylbutazone 50 + compound 30 mg/kg i.p., 10'): 3/5 | positive responses over number treated ([1]; oxyphenylbutazone 50 + compound 30 mg/kg i.p., 20'): 4/5 | positive responses over number treated ([1]; oxyphenylbutazone 50 + compound 30 mg/kg i.p., 30'): 4/5 | positive responses over number treated ([1]; oxyphenylbutazone 50 + compound 30 mg/kg i.p., 45'): 4/5 | positive responses over number treated ([1]; oxyphenylbutazone 50 + compound 30 mg/kg i.p., 60'): 4/5 | positive responses over number treated ([1]; oxyphenylbutazone 50 + compound 30 mg/kg i.p., 90'): 4/5 | average latency, Tail Flick [2, 4]: 9.2 ± 0.53 s | average latency, Tail Flick [2, 5]: 7.0 ± 0.86 s | average latency, Tail Flick [2, 6]: 5.28 ± 0.64 s | average latency, Tail Flick [2, 7]: 9.6 ± 0.46 s | average latency, Tail Flick [2, 8]: 7.24 ± 0.58 s | average latency, Tail Flick [2, 9]: 5.08 ± 0.52 s | ED50 (concentration antagonising 50% of contracting effect of CCK-8) [3]: > 200 µg/mL

CCCN(CCC)C(=O)C(CCC(=O)O)NC(=O)c1ccc(C(C)C)cc1 (centres unmarked) [Compound C-36]
TOTAL positives ([1]; ASA 100 + compound 10 mg/kg i.p.): 10 X/30 | positive responses over number treated ([1]; ASA 100 + compound 10 mg/kg i.p., 10'): 1/5 | positive responses over number treated ([1]; ASA 100 + compound 10 mg/kg i.p., 20'): 2/5 | positive responses over number treated ([1]; ASA 100 + compound 10 mg/kg i.p., 30'): 3/5 | positive responses over number treated ([1]; ASA 100 + compound 10 mg/kg i.p., 45'): 2/5 | positive responses over number treated ([1]; ASA 100 + compound 10 mg/kg i.p., 60'): 1/5 | positive responses over number treated ([1]; ASA 100 + compound 10 mg/kg i.p., 90'): 1/5 | TOTAL positives ([1]; ASA 100 + compound 30 mg/kg i.p.): 14 X/30 | positive responses over number treated ([1]; ASA 100 + compound 30 mg/kg i.p., 10'): 1/5 | positive responses over number treated ([1]; ASA 100 + compound 30 mg/kg i.p., 20'): 2/5 | positive responses over number treated ([1]; ASA 100 + compound 30 mg/kg i.p., 30'): 2/5 | positive responses over number treated ([1]; ASA 100 + compound 30 mg/kg i.p., 45'): 3/5 | positive responses over number treated ([1]; ASA 100 + compound 30 mg/kg i.p., 60'): 3/5 | positive responses over number treated ([1]; ASA 100 + compound 30 mg/kg i.p., 90'): 3/5 | TOTAL positives ([1]; ASA 100 + compound 100 mg/kg i.p.): 20 X/30 | positive responses over number treated ([1]; ASA 100 + compound 100 mg/kg i.p., 10'): 3/5 | positive responses over number treated ([1]; ASA 100 + compound 100 mg/kg i.p., 20'): 3/5 | positive responses over number treated ([1]; ASA 100 + compound 100 mg/kg i.p., 30'): 4/5 | positive responses over number treated ([1]; ASA 100 + compound 100 mg/kg i.p., 45'): 4/5 | positive responses over number treated ([1]; ASA 100 + compound 100 mg/kg i.p., 60'): 4/5 | positive responses over number treated ([1]; ASA 100 + compound 100 mg/kg i.p., 90'): 2/5 | TOTAL positives ([1]; methadone 1 + compound 0.3 mg/kg i.p.): 2 X/30 | positive responses over number treated ([1]; methadone 1 + compound 0.3 mg/kg i.p., 10'): 2/5 | positive responses over number treated ([1]; methadone 1 + compound 0.3 mg/kg i.p., 20'): 2/5 | positive responses over number treated ([1]; methadone 1 + compound 0.3 mg/kg i.p., 30'): 3/5 | positive responses over number treated ([1]; methadone 1 + compound 0.3 mg/kg i.p., 45'): 3/5 | positive responses over number treated ([1]; methadone 1 + compound 0.3 mg/kg i.p., 60'): 1/5 | positive responses over number treated ([1]; methadone 1 + compound 0.3 mg/kg i.p., 90'): 1/5 | TOTAL positives ([1]; methadone 1 + compound 1 mg/kg i.p.): 19 X/30 | positive responses over number treated ([1]; methadone 1 + compound 1 mg/kg i.p., 10'): 3/5 | positive responses over number treated ([1]; methadone 1 + compound 1 mg/kg i.p., 20'): 5/5 | positive responses over number treated ([1]; methadone 1 + compound 1 mg/kg i.p., 30'): 4/5 | positive responses over number treated ([1]; methadone 1 + compound 1 mg/kg i.p., 45'): 3/5 | positive responses over number treated ([1]; methadone 1 + compound 1 mg/kg i.p., 60'): 3/5 | positive responses over number treated ([1]; methadone 1 + compound 1 mg/kg i.p., 90'): 1/5 | TOTAL positives ([1]; methadone 1 + compound 3 mg/kg i.p.): 24 X/30 | positive responses over number treated ([1]; methadone 1 + compound 3 mg/kg i.p., 10'): 5/5 | positive responses over number treated ([1]; methadone 1 + compound 3 mg/kg i.p., 20'): 5/5 | positive responses over number treated ([1]; methadone 1 + compound 3 mg/kg i.p., 30'): 3/5 | positive responses over number treated ([1]; methadone 1 + compound 3 mg/kg i.p., 45'): 4/5 | positive responses over number treated ([1]; methadone 1 + compound 3 mg/kg i.p., 60'): 5/5 | positive responses over number treated ([1]; methadone 1 + compound 3 mg/kg i.p., 90'): 2/5 | average latency, Tail Flick [2, 4]: 6.9 ± 0.74 s | average latency, Tail Flick [2, 5]: 6.5 ± 0.42 s | average latency, Tail Flick [2, 6]: 4.66 ± 0.55 s | average latency, Tail Flick [2, 7]: 9.22 ± 0.67 s | average latency, Tail Flick [2, 8]: 8.1 ± 0.43 s | average latency, Tail Flick [2, 9]: 9.28 ± 0.64 s | ED50 (concentration antagonising 50% of contracting effect of CCK-8) [3]: 13.4 µg/mL
